US9604923B2 (H. LEE MOFFITT CANCER CENTER AND RESEARCH INSTITUTE, INC., priority 2006, dated 2017)
Read-outs that look alike come from different tables or passages of the source. Each block holds one compound with its values, some of them ahead of it.

How the values were obtained:
STAT3 [1] = target: T1, STAT3 (Mus musculus, UniProt P42227); test: Inhibition of STAT3 dimerization, EMSA assay; type: binding; set-up: nuclear extracts were pre-incubated with compound for 30 minutes at room temperature prior to incubation with the radiolabeled probe; endogenous in cells; host or cells: nuclear extracts per the general EMSA method
STAT3 [2] = target: T1, STAT3; test: Inhibition of STAT3 dimerization, EMSA assay; type: binding; set-up: endogenous in cells; host or cells: nuclear extracts per the general EMSA method
Stat3:3 = target: T2, Stat3:3 (Mus musculus, UniProt P42227); test: STATs DNA-binding activity in vitro, EMSA with hSIE probe; conditions: for IC50: Table 4, read-out: IC50 values for the inhibition of STATs DNA-binding activity in vitro, Stat3:3
T2 construct: endogenous in cells; host or cells: NIH3T3/v-Src or EGF-stimulated NIH3T3/hEGFR mouse fibroblasts, nuclear extracts

Stat1:3 = target: T3, Stat1:3 (Mus musculus, UniProt P42227); test: as above; conditions: Table 4; read-out: IC50 values for the inhibition of STATs DNA-binding activity in vitro, Stat1:3
T3 construct: endogenous in cells; host or cells: EGF-stimulated NIH3T3/hEGFR mouse fibroblasts, nuclear extracts

Stat1:1 = target: T4, Stat1:1 (Mus musculus, UniProt P42225); test: STATs DNA-binding activity in vitro, EMSA; conditions: Table 4; read-out: IC50 values for the inhibition of STATs DNA-binding activity in vitro, Stat1:1
T4 construct: endogenous in cells; host or cells: EGF-stimulated NIH3T3/hEGFR mouse fibroblasts, nuclear extracts
T4 sequence (P42225 2-749 limits assumed): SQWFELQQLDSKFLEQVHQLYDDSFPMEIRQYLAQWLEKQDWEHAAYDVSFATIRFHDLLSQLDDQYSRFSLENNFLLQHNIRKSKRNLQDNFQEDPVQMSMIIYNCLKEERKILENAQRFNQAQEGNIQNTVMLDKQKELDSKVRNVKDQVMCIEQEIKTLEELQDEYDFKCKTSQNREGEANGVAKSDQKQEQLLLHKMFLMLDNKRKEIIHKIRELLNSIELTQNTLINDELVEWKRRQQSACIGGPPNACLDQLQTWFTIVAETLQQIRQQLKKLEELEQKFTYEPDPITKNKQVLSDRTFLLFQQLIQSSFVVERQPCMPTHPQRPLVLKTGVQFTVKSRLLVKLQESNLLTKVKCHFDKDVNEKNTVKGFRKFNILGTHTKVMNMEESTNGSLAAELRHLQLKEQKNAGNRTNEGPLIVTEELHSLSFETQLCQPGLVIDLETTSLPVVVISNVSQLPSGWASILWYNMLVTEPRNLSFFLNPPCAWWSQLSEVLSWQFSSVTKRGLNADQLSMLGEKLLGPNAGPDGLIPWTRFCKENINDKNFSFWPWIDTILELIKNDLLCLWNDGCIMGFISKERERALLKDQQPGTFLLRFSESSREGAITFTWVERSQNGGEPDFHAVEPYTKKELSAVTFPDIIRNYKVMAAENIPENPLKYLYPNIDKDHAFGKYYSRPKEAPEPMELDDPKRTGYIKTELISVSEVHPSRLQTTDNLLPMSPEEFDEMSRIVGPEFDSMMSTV

Stat5:5 = test: STATs DNA-binding activity in vitro, EMSA with MGFe probe; set-up: species or system mouse; conditions: Table 4; read-out: IC50 values for the inhibition of STATs DNA-binding activity in vitro, Stat5:5

T1 sequence (P42227 2-770 limits assumed): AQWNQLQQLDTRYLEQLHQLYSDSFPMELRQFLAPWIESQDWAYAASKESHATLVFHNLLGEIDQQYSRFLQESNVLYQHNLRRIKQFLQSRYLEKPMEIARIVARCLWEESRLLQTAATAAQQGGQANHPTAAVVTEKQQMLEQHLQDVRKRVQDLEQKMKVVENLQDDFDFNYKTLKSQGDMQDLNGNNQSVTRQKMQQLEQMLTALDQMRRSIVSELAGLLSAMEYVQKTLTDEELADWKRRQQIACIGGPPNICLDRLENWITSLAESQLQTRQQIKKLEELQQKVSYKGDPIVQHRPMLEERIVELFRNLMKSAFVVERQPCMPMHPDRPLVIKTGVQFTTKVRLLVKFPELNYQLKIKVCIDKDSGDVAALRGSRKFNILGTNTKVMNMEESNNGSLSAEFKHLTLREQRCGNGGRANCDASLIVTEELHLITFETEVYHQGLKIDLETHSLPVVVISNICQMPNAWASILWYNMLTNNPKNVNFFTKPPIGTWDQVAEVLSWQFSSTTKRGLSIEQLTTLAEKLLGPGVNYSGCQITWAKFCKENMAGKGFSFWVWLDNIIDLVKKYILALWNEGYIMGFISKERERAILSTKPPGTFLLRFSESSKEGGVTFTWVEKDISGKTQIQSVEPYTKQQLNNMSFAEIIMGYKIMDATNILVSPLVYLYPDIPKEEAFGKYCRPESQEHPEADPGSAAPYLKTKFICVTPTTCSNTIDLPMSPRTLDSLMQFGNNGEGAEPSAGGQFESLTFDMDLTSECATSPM
T3 sequence (P42227 2-770 limits assumed): as above
T2 sequence (P42227 2-770 limits assumed): as above

SMILES: CCOC(=O)c1ccc(NC(=O)CC(CNS(=O)(=O)c2ccc(Oc3ccccc3)cc2)c2ccc(Cl)cc2)cc1 (stereo not shown) [Compound 37]
IC50 (STAT3 [1]): > 500 µM

SMILES: CCOC(=O)c1ccc(NC(=O)CC(CNS(=O)(=O)c2ccc(C)cc2)c2ccc(Cl)cc2)cc1 (stereo not shown) [Compound 38, Ethyl 4-(3-(4-chlorophenyl)-4-(4-methylphenylsulfonamido)butanamido)benzoate]
melting point: 187 to 189 °C

SMILES: CCOC(=O)c1ccc(NC(=O)CC(CNS(=O)(=O)c2ccc(Oc3ccccc3)cc2)c2ccccc2)cc1 (stereo not shown) [Compound 56, Ethyl 4-(4-(4-phenoxyphenylsulfonamido)-3-phenylbutanamido)benzoate]
melting point: 147 to 149 °C

SMILES: CCOC(=O)c1ccc(NC(=O)CC(CNS(=O)(=O)c2ccc(Oc3ccccc3)cc2)c2ccc3ccccc3c2)cc1 (stereo not shown) [Compound 58, Ethyl 4-(3-(naphthalen-2-yl)-4-(4-phenoxyphenylsulfonamido)butanamido)benzoate]
melting point: 141 to 143 °C

SMILES: O=C(CC(CNS(=O)(=O)c1ccc(Oc2ccccc2)cc1)c1ccc2ccccc2c1)Nc1ccc(C(=O)O)c(O)c1 (stereo not shown) [Compound 65, 2-hydroxy-4-(3-(naphthalen-2-yl)-4-(4-phenoxyphenylsulfonamido)butanamido)benzoic acid]
melting point: 153 to 155 °C | IC50 (STAT3 [2]): > 500 µM

SMILES: CCOc1cccc2c(NCCCCCCCCNc3c4ccccc4nc4c(OCC)cccc34)c3ccccc3nc12 [NSC 263435]
inhibition of Stat3 DNA-binding activity, in words (Stat3:3): notable potent inhibitors | IC50 (Stat3:3): 25 µM | IC50 (Stat1:3): 40 µM | IC50 (Stat1:1): 50 µM | IC50 (Stat5:5): 25 µM

SMILES: N#Cc1cc([N+](=O)[O-])ccc1NC(=O)C(=O)Nn1c(=S)[nH]c2ccccc2c1=O [NSC 645885]
IC50 (Stat3:3): 245 µM | IC50 (Stat1:3): 250 µM | IC50 (Stat1:1): 205 µM | IC50 (Stat5:5): 250 µM

SMILES: CC(=O)NNc1nc(C)c(C(/C=C/c2cccc([N+](=O)[O-])c2)=N/NC(=S)NN)s1 [NSC 647608]
IC50 (Stat3:3): 295 µM | IC50 (Stat1:3): > 300 µM | IC50 (Stat1:1): > 300 µM | IC50 (Stat5:5): > 300 µM

Results, then the compound that gave them:

IC50 (STAT3 [1]): > 500 µM
SMILES: O=C(COS(=O)(=O)c1ccc(-c2ccccc2)cc1)Nc1ccc(C(=O)O)c(O)c1 [Compound 19]

IC50 (STAT3 [1]): > 500 µM
SMILES: O=C(CNS(=O)(=O)c1ccc(-c2ccccc2)cc1)Nc1ccc(C(=O)O)c(O)c1 [Compound 21]

melting point: 187 to 189 °C | IC50 (STAT3 [2]): > 500 µM
SMILES: O=C(CC(CNS(=O)(=O)c1ccc(Oc2ccccc2)cc1)c1ccccc1)Nc1ccc(C(=O)O)cc1 (stereo not shown) [Compound 60, 4-(4-(4-phenoxyphenylsulfonamido)-3-phenylbutanamido)benzoic acid]

melting point: 183 to 184 °C
SMILES: O=C(CC(CNS(=O)(=O)c1ccc(Oc2ccccc2)cc1)c1ccc2ccccc2c1)Nc1ccc(C(=O)O)cc1 (stereo not shown) [Compound 61, 4-(3-(naphthalen-2-yl)-4-(4-phenoxyphenylsulfonamido)butanamido)benzoic acid]

melting point: 109 to 111 °C | IC50 (STAT3 [2]): > 500 µM
SMILES: CCOC(=O)c1ccc(NC(=O)CCc2ccccc2)cc1 [Compound 70, Ethyl 4-(3-phenylpropanamido)benzoate]

melting point: 255 to 257 °C | IC50 (STAT3 [2]): > 500 µM
SMILES: O=C(CCc1ccc2ccccc2c1)Nc1ccc(C(=O)O)cc1 [Compound 71, 4-(3-(Naphthalen-2-yl)propanamido)benzoic acid]
